pIC50: −log10 of the molar value.
Key:
enzyme ACAT-1 = target: T1, enzyme ACAT-1 (Homo sapiens, UniProt P35610); test: HepG2 NBD-cholesterol fluorescence test for inhibitory activity towards the enzyme ACAT-1 (SOAT-1); format: cell-based; conditions: HepG2 cells, NBD-cholesterol 1 μg/ml, incubation 6 hours at 37° C., fluorescence ex 490 nm / em 540 nm
T1 construct: endogenous in cells; host or cells: HepG2
T1 sequence (P35610 1-550): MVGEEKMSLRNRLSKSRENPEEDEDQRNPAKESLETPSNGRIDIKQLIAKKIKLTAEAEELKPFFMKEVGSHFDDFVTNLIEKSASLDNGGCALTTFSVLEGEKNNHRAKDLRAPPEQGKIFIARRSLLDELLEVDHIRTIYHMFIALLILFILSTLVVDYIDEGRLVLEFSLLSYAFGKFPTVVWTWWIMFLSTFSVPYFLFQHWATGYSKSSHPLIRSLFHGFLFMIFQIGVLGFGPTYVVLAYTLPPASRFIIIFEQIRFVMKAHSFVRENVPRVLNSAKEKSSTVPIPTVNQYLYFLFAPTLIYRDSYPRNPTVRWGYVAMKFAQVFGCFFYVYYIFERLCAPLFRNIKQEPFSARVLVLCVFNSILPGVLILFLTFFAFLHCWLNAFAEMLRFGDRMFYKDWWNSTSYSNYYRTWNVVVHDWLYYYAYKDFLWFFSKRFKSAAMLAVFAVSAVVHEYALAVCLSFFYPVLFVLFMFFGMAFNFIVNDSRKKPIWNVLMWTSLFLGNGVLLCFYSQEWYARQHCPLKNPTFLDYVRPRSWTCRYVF
Experimental: The compounds (1) according to the invention, and also the pharmaceutically acceptable salts, solvates and/or hydrates thereof, have inhibitory properties on the enzyme SOAT-1. This inhibitory activity on the enzyme SOAT-1 is measured according to a HepG2 primary enzymatic test, as described in Example 3.
The compounds of formula (I) according to the invention were subjected to a test for evaluating their inhibitory activity towards the enzyme ACAT-1, inspired by the following publication: “Identification of ACAT1- and ACAT2-specific inhibitors using a novel, cell based fluorescence assay: individual ACAT uniqueness”, J. Lipid. Res. (2004) vol. 45, pages 378-386.
The principle of this test is based on the use of NBD-cholesterol, a cholesterol analogue whose fluorescence depends on its environment. When this molecule is in a polar environment, it is weakly fluorescent, whereas in a non-polar environment, it is strongly fluorescent. […]
The method below is applied: HepG2 cells are incubated in the presence of NBD-cholesterol (1 μg/ml) and of the test compound of formula (I) in black transparent-bottomed 96-well plates, at a rate of 30 000 cells per well. […] After addition of 50 μl of lysis buffer (10 mM NaPO4, 1% Igepal), the plates are shaken for 5 minutes and the fluorescence is read (excitation at 490 nm, emission at 540 nm) on a Fusion machine (Perkin-Elmer). […]

melting point: 186 °C
pIC50 (enzyme ACAT-1): 8.05
Structure (SMILES): CCCC1(C)C(=O)N(CC(=O)Nc2c(C(C)C)cccc2C(C)C)C(=O)N1c1ccc(C)cc1 (centres unmarked) [Compound 1, N-(2,6-Diisopropylphenyl)-2-(4-methyl-2,5-dioxo-4-propyl-3-p-tolylimidazolidin-1-yl)acetamide]

From US20130022644A1, “NOVEL N-PHENYLACETAMIDE DERIVATIVES, WHICH INHIBIT THE ENZYME SOAT-1, AND PHARMACEUTICAL AND COSMETIC COMPOSITIONS CONTAINING THEM” (GALDERMA RESEACH & DEVELOPMENT, priority 2009, published 2013)
